Tested on: T1, L-asparaginase (N-SMASP)
T1 construct: native enzyme purified from culture supernatant of chloramphenicol-selected colonies (ammonium sulfate, Sephadex G-100); single 17 kDa band on SDS-PAGE
Experiment: Nessler ammonia release assay, Lineweaver-Burk
Assay type: biochemical, Stenotrophomonas maltophilia
Settings: 0.05 M Tris-HCl pH 8.6, 37 °C

`NC(=O)C[C@H](N)C(=O)O` [L-asparagine] was tested. Which Km did it give?
Its Km is 41.6 mM.

From PMC11069494, “Production of highly cytotoxic and low immunogenic L-asparaginase from Stenotrophomonas maltophilia EMCC2297” (AMB Express, 2024)
